IC50 data for 25 molecules are collected here from US20070004660A1, “Synergistic Modulation of Flt3 Kinase Using Alkylquinolines and Alkylquinazolines” (priority 2005, published 2007).

For the test, the target named is T1, wild-type FLT3 receptor (Homo sapiens, UniProt P36888).
T1 construct: host or cells: Baf3 (murine B cell lymphoma line), stably transfected
T1 sequence (P36888 27-993): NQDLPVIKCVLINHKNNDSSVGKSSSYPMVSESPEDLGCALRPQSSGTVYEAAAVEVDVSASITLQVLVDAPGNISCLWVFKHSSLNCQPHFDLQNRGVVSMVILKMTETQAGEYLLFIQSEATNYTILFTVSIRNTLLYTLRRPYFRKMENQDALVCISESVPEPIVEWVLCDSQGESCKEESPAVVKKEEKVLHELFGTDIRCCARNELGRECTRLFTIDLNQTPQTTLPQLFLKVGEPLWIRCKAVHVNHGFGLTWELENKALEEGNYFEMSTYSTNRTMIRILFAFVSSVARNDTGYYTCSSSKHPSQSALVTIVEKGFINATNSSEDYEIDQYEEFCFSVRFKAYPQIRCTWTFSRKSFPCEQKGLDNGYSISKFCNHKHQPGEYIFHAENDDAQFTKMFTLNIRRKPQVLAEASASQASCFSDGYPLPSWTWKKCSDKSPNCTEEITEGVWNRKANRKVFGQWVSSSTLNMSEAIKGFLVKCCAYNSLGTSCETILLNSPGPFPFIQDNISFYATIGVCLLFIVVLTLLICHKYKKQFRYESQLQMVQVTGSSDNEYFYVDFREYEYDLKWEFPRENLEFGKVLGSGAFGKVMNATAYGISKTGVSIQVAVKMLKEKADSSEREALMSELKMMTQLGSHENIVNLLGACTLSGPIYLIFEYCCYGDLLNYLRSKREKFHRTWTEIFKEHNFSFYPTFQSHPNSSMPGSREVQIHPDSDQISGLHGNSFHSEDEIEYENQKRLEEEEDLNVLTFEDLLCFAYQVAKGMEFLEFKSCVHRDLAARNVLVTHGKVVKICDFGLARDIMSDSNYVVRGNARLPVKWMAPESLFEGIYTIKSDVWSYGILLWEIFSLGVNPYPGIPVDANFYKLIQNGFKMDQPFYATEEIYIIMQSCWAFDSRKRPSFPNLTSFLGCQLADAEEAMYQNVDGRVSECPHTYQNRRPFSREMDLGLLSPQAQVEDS
The experiment in a line: Cell-based FLT3 receptor ELISA (FLT ligand-induced phosphorylation in Baf3 FLT3 cells). The conditions noted are these: 100 ng/mL Flt ligand, uncertainty ±20%. An outline of the steps: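 Receptor phosphotyrosine measured by sandwich ELISA (anti-FLT3 capture, HRP anti-pTyr, luminescence) in FLT3-transfected murine Baf3 cells given 1 h compound pretreatment and 10 min 100 ng/mL FLT ligand after overnight low-serum starvation; triplicates, IC50 from nonlinear regression.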
On the technique in general: ELISA stands for enzyme-linked immunosorbent assay.
The term IC50 denotes the concentration that gives 50% inhibition. Read a high IC50 as weaker potency. On to `O=C(Nc1ccc(N2CCCC2)cc1)N1CCC(c2ncnc3cc(OCCN4CCC[C@H]4CO)ccc23)CC1` [Example 152, (S)-4-{7-[2-(2-Hydroxymethyl-pyrrolidin-1-yl)-ethoxy]-quinazolin-4-yl}-piperidine-1-carboxylic acid (4-pyrrolidin-1-yl-phenyl)-amide], for which it took 42 nM to reach half-maximal inhibition (IC50). That is a double-digit nanomolar value.
For the molecule `O=C(Nc1ccc(N2CCOCC2)cc1)N1CCC(c2ncnc3cc(N4CCN(CCO)CC4)ccc23)CC1` [Example 137, 4-{7-[4-(2-Hydroxy-ethyl)-piperazin-1-yl]-quinazolin-4-yl}-piperidine-1-carboxylic acid (4-morpholin-4-yl-phenyl)-amide], the midpoint of inhibition, the IC50, lay at 41 nM. This IC50 and that of the molecule before are within 1.5-fold of each other.
Turning to `O=C(Nc1ccc(N2CCCC2)cc1)N1CCC(c2ncnc3cc(O[C@H]4CCOC4)ccc23)CC1` [Compound 190, (S)-4-[7-(Tetrahydro-furan-3-yloxy)-quinazolin-4-yl]-piperidine-1-carboxylic acid (4-pyrrolidin-1-yl-phenyl)-amide], the IC50 was 109 nM.
`CN1CCN(CCCOc2cc3ncnc(C4CCN(C(=O)Nc5ccc(N6CCOCC6)cc5)CC4)c3cc2F)CC1` [Compound 205, 4-{6-Fluoro-7-[3-(4-methyl-piperazin-1-yl)-propoxy]-quinazolin-4-yl}-piperidine-1-carboxylic acid (4-morpholin-4-yl-phenyl)-amide] showed an IC50 of 6 nM.
The figure for `CS(=O)(=O)N1CC(Oc2ccc3c(C4CCN(C(=O)Nc5ccc(N6CCCC6)cc5)CC4)ncnc3c2)C1` [Example 171, 4-[7-(1-Methanesulfonyl-azetidin-3-yloxy)-quinazolin-4-yl]-piperidine-1-carboxylic acid (4-pyrrolidin-1-yl-phenyl)-amide] is 10 nM; for `CN1CCN(CCOc2ccc3c(C4CCN(C(=O)Nc5ccc(N6CCCC6)cc5)CC4)ncnc3c2)CC1` [Example 157, 4-{7-[2-(4-Methyl-piperazin-1-yl)-ethoxy]-quinazolin-4-yl}-piperidine-1-carboxylic acid (4-pyrrolidin-1-yl-phenyl)-amide] it is 16 nM; for `CS(=O)(=O)CCNc1ccc2c(C3CCN(C(=O)Nc4ccc(N5CCOCC5)cc4)CC3)ncnc2c1` [Example 146, 4-[7-(2-Methanesulfonyl-ethylamino)-quinazolin-4-yl]-piperidine-1-carboxylic acid (4-morpholin-4-yl-phenyl)-amide] it is 87 nM.
For the molecule `CN(C)[C@@H]1CCN(c2ccc3c(C4CCN(C(=O)Nc5ccc(N6CCOCC6)cc5)CC4)ncnc3c2)C1` [Example 150, (R)-4-[7-(3-Dimethylamino-pyrrolidin-1-yl)-quinazolin-4-yl]-piperidine-1-carboxylic acid (4-morpholin-4-yl-phenyl)-amide], the IC50 came out at 19 nM.
As to `CS(=O)(=O)N1CCN(c2ccc3c(C4CCN(C(=O)Nc5ccc(N6CCOCC6)cc5)CC4)ncnc3c2)CC1` [Example 142, 4-[7-(4-Methanesulfonyl-piperazin-1-yl)-quinazolin-4-yl]-piperidine-1-carboxylic acid (4-morpholin-4-yl-phenyl)-amide], the IC50 was 5 nM.
`O=C(Nc1ccc(N2CCCC2)cc1)N1CCC(c2ncnc3cc(N4CCOC4=O)ccc23)CC1` [Example 176, 4-[7-(2-Oxo-oxazolidin-3-yl)-quinazolin-4-yl]-piperidine-1-carboxylic acid (4-pyrrolidin-1-yl-phenyl)-amide] yielded an IC50 of 7 nM. The IC50 values of the last two molecules are within 1.5-fold of each other.
The molecule `O=C(Nc1ccc(N2CCOCC2)cc1)N1CCC(c2ncnc3cc(OCCN4CCOC4=O)ccc23)CC1` [Example 148, 4-{7-[2-(2-Oxo-oxazolidin-3-yl)-ethoxy]-quinazolin-4-yl}-piperidine-1-carboxylic acid (4-morpholin-4-yl-phenyl)-amide] yielded an IC50 of 83 nM.
`O=C(Nc1ccc(N2CCCC2)cc1)N1CCC(c2ncnc3cc(N4CCOCC4)ccc23)CC1` [Compound 181, 4-(7-Morpholin-4-yl-quinazolin-4-yl)-piperidine-1-carboxylic acid (4-pyrrolidin-1-yl-phenyl)-amide] returned a half-maximal inhibitory concentration (IC50) of 5 nM. This IC50 is about 17-fold lower than that of the molecule before.
For `CN1CCN(c2ccc3c(C4CCN(C(=O)Nc5ccc(N6CCCC6)nc5)CC4)ncnc3c2)CC1` [Example 160, 4-[7-(4-Methyl-piperazin-1-yl)-quinazolin-4-yl]-piperidine-1-carboxylic acid (6-pyrrolidin-1-yl-pyridin-3-yl)-amide], the 50% inhibitory concentration (IC50) was found to be 11 nM.
`O=C(Nc1ccc(N2CCOCC2)cc1)N1CCC(c2ncnc3cc(N4CCC[C@@H]4CO)ccc23)CC1` [Example 132, (R)-4-[7-(2-Hydroxymethyl-pyrrolidin-1-yl)-quinazolin-4-yl]-piperidine-1-carboxylic acid (4-morpholin-4-yl-phenyl)-amide] had an IC50 of 27 nM.
The molecule `CC(=O)N1CCN(c2ccc3c(C4CCN(C(=O)Nc5ccc(N6CCCC6)cc5)CC4)ncnc3c2)CC1` [Example 166, 4-[7-(4-Acetyl-piperazin-1-yl)-quinazolin-4-yl]-piperidine-1-carboxylic acid (4-pyrrolidin-1-yl-phenyl)-amide] had an IC50 of 16 nM.
`COc1cc2ncnc(C3CCN(C(=O)Nc4ccc(C5CCCCC5)cc4)CC3)c2cc1OC` [Example 21, 4-(6,7-Dimethoxy-quinazolin-4-yl)-piperidine-1-carboxylic acid (4-cyclohexyl-phenyl)-amide] returned an IC50 of 2 nM.
Regarding `O=C(Nc1ccc(N2CCCC2)cc1)N1CCC(c2ncnc3cc(OCCCN4CCC[C@H]4CO)ccc23)CC1` [Example 161, (S)-4-{7-[3-(2-Hydroxymethyl-pyrrolidin-1-yl)-propoxy]-quinazolin-4-yl}-piperidine-1-carboxylic acid (4-pyrrolidin-1-yl-phenyl)-amide], the IC50 came to 59 nM.
For the molecule `CN(C)C(=O)N1CCN(CCCOc2ccc3c(C4CCN(C(=O)Nc5ccc(N6CCCC6)cc5)CC4)ncnc3c2)CC1` [Example 165, 4-(3-{4-[1-(4-Pyrrolidin-1-yl-phenylcarbamoyl)-piperidin-4-yl]-quinazolin-7-yloxy}-propyl)-piperazine-1-carboxylic acid dimethylamide], the midpoint of inhibition, the IC50, lay at 4 nM.
`O=C(CO)N1CCN(c2ccc3c(C4CCN(C(=O)Nc5ccc(N6CCCC6)cc5)CC4)ncnc3c2)CC1` [Compound 201, 4-{7-[4-(2-Hydroxy-acetyl)-piperazin-1-yl]-quinazolin-7-yl}-piperidine-1-carboxylic acid (4-pyrrolidin-1-yl-phenyl)-amide]: the IC50 came out at 65 nM. Compared with the last molecule, the IC50 is about 16-fold higher.
The figure for `CC(C)Oc1ccc(NC(=O)N2CCC(c3ncnc4ccc(C#CCN5CCOCC5)cc34)CC2)cc1` [Example 15, 4-[6-(3-Morpholin-4-yl-prop-1-ynyl)-quinazolin-4-yl]-piperidine-1-carboxylic acid (4-isopropoxy-phenyl)-amide] is 55 nM; for `O=C(Nc1ccc(N2CCOCC2)cc1)N1CCC(c2ncnc3cc(N4CCOCC4)ccc23)CC1` [Example 145, 4-(7-Morpholin-4-yl-quinazolin-4-yl)-piperidine-1-carboxylic acid (4-morpholin-4-yl-phenyl)-amide] it is 14 nM; for `CC(=O)N1CCC[C@H]1COc1ccc2c(C3CCN(C(=O)Nc4ccc(N5CCCC5)cc4)CC3)ncnc2c1` [Example 162, (S)-4-[7-(1-Acetyl-pyrrolidin-2-ylmethoxy)-quinazolin-4-yl]-piperidine-1-carboxylic acid (4-pyrrolidin-1-yl-phenyl)-amide] it is 10 nM.
Molecule `CN(C)C(=O)N1CCN(c2ccc3c(C4CCN(C(=O)Nc5ccc(N6CCOCC6)cc5)CC4)ncnc3c2)CC1` [Example 143, 4-{4-[1-(4-Morpholin-4-yl-phenylcarbamoyl)-piperidin-4-yl]-quinazolin-7-yl}-piperazine-1-carboxylic acid dimethylamide] had an IC50 of 1 nM. This IC50 is about 10-fold lower than that of the molecule before.
For `O=C(Nc1ccc(N2CCCC2)cc1)N1CCC(c2ncnc3cc(O[C@@H]4CCOC4)ccc23)CC1` [Compound 191, (R)-4-[7-(Tetrahydro-furan-3-yloxy)-quinazolin-4-yl]-piperidine-1-carboxylic acid (4-pyrrolidin-1-yl-phenyl)-amide] the value was 144 nM.
Molecule `COc1cc2ncnc(C3CCN(C(=O)Nc4ccc(CO)cc4)CC3)c2cc1OC` [Example 22, 4-(6,7-Dimethoxy-quinazolin-4-yl)-piperidine-1-carboxylic acid (4-hydroxymethyl-phenyl)-amide] returned an IC50 of 5100 nM.
